Experimental data: patent publication US20100120715A1, “BETA-LACTAMASE INHIBITORS” (priority 2007, published 2010)

Tests used:
Class A ESBL SHV-5 = target: T1, Class A ESBL SHV-5 (Klebsiella pneumoniae, UniProt P0A3M1); type: biochemical, E. coli; settings: purified beta-lactamase enzyme (Examples 1 and 31-64); nitrocefin 100 μM, PBS pH 7.0; read-out: SHV-5 IC50 Range
T1 construct: made in house; host or cells: E. coli BL21(DE3) for purified enzyme; E. coli cells containing SHV-5 for extracts
Experimental: (§1) Isolation of β-lactamases. For all examples, purified beta-lactamase enzymes were used to measure a compounds' ability to inhibit the Class A ESBL CTXM-15, the Class C P99 AmpC and the Class A carbapenemase KPC-2. […] The enzyme preparations are described herein.
For the preparation of SHV-5 extracts, E. coli cells containing SHV-5 were cultured overnight with shaking at a volume of 20 mL. They were further diluted 10-fold and grown to mid-log phase (OD at 600 nm, 0.5-0.8) in Mueller-Hinton II (MH-II) broth at 37° C. The cells were pelleted at 5000 g, washed and resuspended in 2 mL PBS pH 7.0. The β-lactamase was extracted by four cycles of freezing and thawing followed by centrifugation. β-lactamase activity in the extract was measured with the chromogenic cephalosporin nitrocefin. The amount of protein in each β-lactamase preparation was determined by the bicinchoninic acid (BCA) assay.
(§2) For the isolation and purification of SHV-5, p99 AmpC, KPC-2 and CTX-M15 β-lactamases, E. coli BL21(DE3) bacterial cells carrying expression plasmids (expressed as native untagged proteins) for the individual β-lactamases were grown in 1 L of Superbroth (Teknova Inc. Hollister, Calif.) supplemented with 100 μg/ml kanamycin and 1×5052 (0.5% glycerol, 0.05% glucose and 0.2% α-lactose) at 35° C. for 18-20 hours. Cells were harvested by centrifugation (4,000×g, 4° C., 20 min), and resuspended in 50 ml of 10 mM HEPES pH 7.5 ( 1/20 of the initial volume). The cells were lysed by sonication (5 pulses of 45 seconds) at 45 W on ice. The lysates were clarified by centrifugation at 10,000×g for 40 minutes at 4° C. Samples were diluted 5-fold in 50 mM sodium acetate pH 5.0, stored overnight at 4° C., after which they were centrifuged at 10,000×g for 30 minutes to clarify, and filtered through 0.45 μm filters. The samples were loaded onto a 5 ml Capto S sepharose cation exchange column (GE Healthcare) pre-equilibrated with 50 mM sodium acetate pH 5.0. The column was washed with 5 column volumes of 50 mM sodium acetate pH 5.0 to wash out unbound protein and a linear gradient of NaCl (0 to 500 mM) was used to elute the protein (over 16 CV) from the column. Fractions were assayed for β-lactamase activity using Centa (Calbiochem, Gibbstown, N.J.) as a reporter β-lactamase substrate for activity in the isolated fractions. Active fractions were pooled, concentrated and further purified by gel filtration chromatography on a Superdex 75 prep grade gel filtration column (GE Healthcare, Piscataway, N.J.) pre-equilibrated in 50 mM Hepes pH 7.5, 150 mM NaCl. Active fractions were pooled concentrated, quantitated by BCA protein determination (Thermo Scientific, Rockford, Ill.), and frozen at −80° C. in 20% glycerol until use.
(§3) β-lactamase Inhibition. To determine the level of inhibition of β-lactamaseenzymes, compounds were diluted in PBS at pH 7.0 to yield concentrations between 100 and 0.005 μM in microtiter plates. An equal volume of diluted enzyme stock was added, and the plates were incubated at 37° C. for 10 min. Nitrocefin solution was then dispensed as substrate into each well at a final concentration of 100 μM, and the plates were immediately read with the kinetic program at 486 nm for 10 min on the SPECTRAMAX® Plus^384 (high-throughput microplate spectrophotometer; Molecular Devices Corp., Sunnyvale, Calif.). Maximum rates of metabolism were then compared to those in control wells (without inhibitors), and percentages of enzyme inhibition were calculated for each concentration of inhibitor. The concentration of inhibitor needed to reduce the initial rate of hydrolysis of substrate by 50% (IC50) was calculated as the residual activity of β-lactamase at 486 nm using the SoftMax Pro 5.0 software (Molecular Devices Corp.).

Class C P99 AmpC = target: T2, Class C P99 AmpC (Enterobacter cloacae, UniProt P05364); type: biochemical; settings: purified enzyme; nitrocefin 100 μM, PBS pH 7.0; read-out: P99 AmpC IC50 Range
T2 construct: made in house; host or cells: E. coli BL21(DE3)
Experimental: as §1, §2, §3

[1] = system: K. pneumoniae expressing the Class A carbapenemase KPC-2; experiment: microbe, parasite or virus in culture; settings: in the presence of fixed 8 μg/mL Ceftazidime
Description: (§4) To determine the ability of test compounds to potentiate the inhibition of the growth of bacterial strains producing beta-lactamase enzymes, classic cell based screening assays were employed. Four bacteria strains producing beta-lactamase enzymes were used: K. pneumoniae expressing the Class A Extended Spectrum Beta-Lactamase (ESBL) CTX-M-15, E. coli expressing the Class A ESBL SHV-5, E. cloacae expressing the Class C P99+, and K. pneumoniae expressing the Class A carbapenemase KPC-2. In order to evaluate the ability of test compounds to inhibit beta-lactamase activity, Applicants used a modification of the broth microdilution assay. The assay was conducted in Cation Adjusted Mueller Hinton Broth (CAMHB, BD # 212322, BD Diagnostic Systems, Sparks, Md.). Bacteria strains were grown for 3-5 hours in CAMBH broth. All four strains were grown in presence of 50 μg/mL ampicillin to ensure resistance is maintained. In the meantime, test compounds were diluted in DMSO to a 0.1 mg/mL stock. The compounds were added to a microtiter plate and were diluted in 2-fold serial dilutions in CAMHB in a final concentration range of 8 μg/mL to 0.015 μg/ml. An overlay of CAMHB containing a cephalosporin was added to the compounds at a final static concentration of 8 μg/ml. […] Each of these compound plates are made in quadruplicate, one for each bacteria strain. In addition to the titration of test compounds the MICs of a panel of cephalosporins is also tested to ensure the strains are behaving consistently from test to test. Once the test compound and cephalosporin are added the plates can be inoculated. Inocula are conducted according to CLSI broth microdilution method. After inoculation the plates are incubated for 16-20 hours at 37° C. then the Minimal Inhibitory Concentration (MIC) of the test compound is determined visually.

Class A ESBL CTXM-15 = target: T3, Class A ESBL CTXM-15 (Escherichia coli, UniProt Q9EXV5); experiment: β-lactamase enzyme inhibition (nitrocefin hydrolysis), CTXM-15; type: biochemical; settings: purified enzyme; nitrocefin 100 μM, PBS pH 7.0; read-out: CTXM-15 IC50 Range
T3 construct: made in house; host or cells: E. coli BL21(DE3)
Experimental: as §1, §2, §3

[2] = target: T4, Class A carbapenemase KPC-2 (Klebsiella pneumoniae, UniProt Q9F663); experiment: β-lactamase enzyme inhibition (nitrocefin hydrolysis), KPC-2; type: biochemical; settings: purified enzyme; nitrocefin 100 μM, PBS pH 7.0; read-out: KPC-2 IC50 Range
T4 construct: made in house; host or cells: E. coli BL21(DE3)
Experimental: as §1, §2, §3

[3] = system: E. coli expressing the Class A ESBL SHV-5; experiment: microbe, parasite or virus in culture; type: cell-based; settings: in the presence of fixed 8 μg/mL Ceftazidime
Description: as §4

[4] = system: K. pneumoniae expressing the Class A ESBL CTX-M-15; experiment: microbe, parasite or virus in culture; type: cell-based; settings: in the presence of fixed 8 μg/mL Ceftazidime
Description: as §4, with “An overlay of CAMHB containing a cephalosporin was added to the compounds at a final static concentration of 8 μg/ml.” left out

T3 sequence (Q9EXV5 entry or part of it): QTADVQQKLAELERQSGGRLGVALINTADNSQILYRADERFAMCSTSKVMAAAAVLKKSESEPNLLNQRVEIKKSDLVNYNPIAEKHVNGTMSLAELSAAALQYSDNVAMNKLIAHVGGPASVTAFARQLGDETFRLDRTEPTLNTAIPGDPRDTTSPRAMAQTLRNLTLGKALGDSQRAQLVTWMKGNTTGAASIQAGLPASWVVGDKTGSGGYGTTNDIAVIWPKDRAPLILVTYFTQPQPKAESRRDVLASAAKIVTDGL
T1 sequence (P0A3M1 22-286): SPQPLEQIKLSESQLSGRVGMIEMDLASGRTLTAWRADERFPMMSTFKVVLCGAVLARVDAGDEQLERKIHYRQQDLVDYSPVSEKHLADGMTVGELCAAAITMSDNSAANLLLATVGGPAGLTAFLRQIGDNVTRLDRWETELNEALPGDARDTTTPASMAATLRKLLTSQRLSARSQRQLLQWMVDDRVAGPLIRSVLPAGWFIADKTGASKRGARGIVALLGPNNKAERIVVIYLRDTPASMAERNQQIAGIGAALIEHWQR
T4 sequence (Q9F663 25-293 limits assumed): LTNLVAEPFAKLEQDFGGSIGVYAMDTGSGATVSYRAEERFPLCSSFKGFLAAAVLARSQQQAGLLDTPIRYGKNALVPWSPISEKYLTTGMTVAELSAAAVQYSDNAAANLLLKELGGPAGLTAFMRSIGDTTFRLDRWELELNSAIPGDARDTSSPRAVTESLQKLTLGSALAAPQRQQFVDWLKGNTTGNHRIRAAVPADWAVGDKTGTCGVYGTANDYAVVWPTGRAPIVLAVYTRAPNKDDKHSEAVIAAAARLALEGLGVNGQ
T2 sequence (P05364 21-381): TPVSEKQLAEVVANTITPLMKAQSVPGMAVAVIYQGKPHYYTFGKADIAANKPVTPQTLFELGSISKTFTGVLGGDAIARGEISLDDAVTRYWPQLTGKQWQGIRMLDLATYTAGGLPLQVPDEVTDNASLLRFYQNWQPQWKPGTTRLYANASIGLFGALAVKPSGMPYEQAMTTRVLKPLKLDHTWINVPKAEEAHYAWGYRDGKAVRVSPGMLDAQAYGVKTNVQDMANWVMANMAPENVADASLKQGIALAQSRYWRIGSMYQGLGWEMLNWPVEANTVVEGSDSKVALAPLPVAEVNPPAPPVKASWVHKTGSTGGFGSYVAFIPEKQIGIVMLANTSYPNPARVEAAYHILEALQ

Compound	IC50 (Class A ESBL SHV-5)	IC50 (Class C P99 AmpC)	MIC of example compound, K. pneumoniae KPC-2 + 8 μg/mL CAZ [1]	IC50 (Class A ESBL CTXM-15)	IC50 [2]	MIC of example compound, E. coli SHV-5 + 8 μg/mL CAZ [3]	MIC of example compound, K. pneumoniae CTX-M-15 + 8 μg/mL CAZ [4]
COc1ccccc1C(=O)N[C@@H](Cc1cccc(C(=O)O)c1O)B(O)O [Example 34, (1R)-1-(2-methoxybenzoylamino)-2-(2-hydroxy-3-carboxyphenyl)ethyl-1-boronic acid]	100 to 1000 nM	< 10 nM	C (C represents an MIC of <1 μg/mL)	< 10 nM	10 to 100 nM	A (A represents an MIC >8 μg/mL)	–
O=C(Cn1cccn1)N[C@@H](Cc1cccc(C(=O)O)c1O)B(O)O [Example 40, (1R)-1-(Pyrazol-1-yl-acetylamino)-2-(2-hydroxy-3-carboxyphenyl)ethyl-1-boronic acid]	10 to 100 nM	10 to 100 nM	C (C represents an MIC of <1 μg/mL)	10 to 100 nM	10 to 100 nM	–	C (C represents an MIC of <1 μg/mL)
O=C(N[C@@H](Cc1cccc(C(=O)O)c1O)B(O)O)c1ccc(N2CCOCC2)nc1 [Example 48, (1R)-1-(6-morpholin-4-yl-pyridine-3-carbonyl)-amino-1-(3-carboxy-2-hydroxy)benzyl-methylboronic acid]	100 to 1000 nM	10 to 100 nM	C (C represents an MIC of <1 μg/mL)	< 10 nM	< 10 nM	A (A represents an MIC >8 μg/mL)	–
O=C(CNC(=O)c1ccccc1)N[C@@H](Cc1cccc(C(=O)O)c1O)B(O)O [Example 50, (1R)-1-(Hippuric amido)-2-(2-hydroxy-3-carboxyphenyl)ethyl-1-boronic acid]	< 10 nM	< 10 nM	C (C represents an MIC of <1 μg/mL)	< 10 nM	< 10 nM	–	C (C represents an MIC of <1 μg/mL)
O=C(N[C@@H](Cc1cccc(C(=O)O)c1O)B(O)O)c1cccnc1 [Example 51, (1R)-1-(Nicotinoylamino)-2-(2-hydroxy-3-carboxyphenyl)ethyl-1-boronic acid]	10 to 100 nM	< 10 nM	C (C represents an MIC of <1 μg/mL)	< 10 nM	< 10 nM	–	C (C represents an MIC of <1 μg/mL)
Cn1ccc(C(=O)N[C@@H](Cc2cccc(C(=O)O)c2O)B(O)O)n1 [Example 53, (1R)-1-(1-Methyl-1H-pyrazole-3-carbonyl-amino)-2-(2-hydroxy-3-carboxyphenyl)ethyl-1-boronic acid]	100 to 1000 nM	< 10 nM	C (C represents an MIC of <1 μg/mL)	< 10 nM	< 10 nM	–	C (C represents an MIC of <1 μg/mL)
O=C(N[C@@H](Cc1cccc(C(=O)O)c1O)B(O)O)c1cncnc1 [Example 60, (1R)-1-(Pyrimidine-5-carbonyl-amino)-2-(2-hydroxyl-3-carboxyphenyl)ethyl-1-boronic acid]	10 to 100 nM	< 10 nM	C (C represents an MIC of <1 μg/mL)	10 to 100 nM	< 10 nM	–	C (C represents an MIC of <1 μg/mL)
O=C(Cc1ccccn1)N[C@@H](Cc1cccc(C(=O)O)c1O)B(O)O.O=CO [Example 61, (1R)-1-(2-Pyridylacetylamino)-2-(2-hydroxy-3-carboxyphenyl)ethyl-1-boronic acid formate salt]	< 10 nM	< 10 nM	C (C represents an MIC of <1 μg/mL)	< 10 nM	10 to 100 nM	–	C (C represents an MIC of <1 μg/mL)
CS(=O)(=O)c1ccc(CC(=O)N[C@@H](Cc2cccc(C(=O)O)c2O)B(O)O)cc1 [Example 62, (1R)-1-(2-(4-(methylsulfonyl)phenyl)-acetylamino)-2-(2-hydroxy-3-carboxyphenyl)ethyl-1-boronic acid]	< 10 nM	< 10 nM	C (C represents an MIC of <1 μg/mL)	< 10 nM	< 10 nM	–	C (C represents an MIC of <1 μg/mL)
